“And” between values parts separate entries of the source, which are not always exact repeats. Equal values may be shown once.
System: mouse Mfsd2a
Test: Cell-based free fatty acid transport/uptake in Mfsd2a expressing HEK293 cells (mass spectrometry, TLC; Table 1)
Settings: mock HEK293 cells, 100 uM fatty acid/BSA overnight
Summary of the method: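 HEK293 cells expressing mouse Mfsd2a, or mock controls, were incubated overnight with 100 μM BSA-complexed fatty acids. Lipids were extracted in hexane:isopropanol (3:2) and phospholipid species quantified by HPLC-MS/MS against spiked internal standards. For TLC, cells received 100 μM [^14C]-oleate overnight, and phospholipids and neutral lipids were resolved.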

SMILES: CCCCCCCCCCCCCCCC(=O)O [Palmitic acid]
- % DHA in PC + lysoPC: 0.04025% and 0.03837% and 0.03939%
- % DHA in PE + lysoPE: 10.87% and 12.13% and 11.44%
- % DHA in PI and lysoPI: 0.01445% and 0.01615% and 0.01441%
- % DHA in PS: 0.1091% and 0.1184% and 0.1391%
- LPI16:0 in total phospholipid: 0.004053 mol percent and 0.002611 mol percent and 0.002621 mol percent
- LPI18:0 in total phospholipid: 0.0326 mol percent and 0.02611 mol percent and 0.03227 mol percent
- LPI20:4 in total phospholipid: 0.002114 mol percent and 0.002121 mol percent and 0.002948 mol percent
- LPI22:6 in total phospholipid: 0.009339 mol percent and 0.008648 mol percent and 0.007698 mol percent
- Lyso PE16:0p in total phospholipid: 2.649 mol percent and 2.594 mol percent and 2.175 mol percent
- Lyso PE18:0p in total phospholipid: 0.4161 mol percent and 0.4127 mol percent and 0.4189 mol percent
- Lyso PE18:1p in total phospholipid: 0.2081 mol percent and 0.1327 mol percent and 0.1216 mol percent
- Lyso PE20:0p in total phospholipid: 0.1803 mol percent and 0.2801 mol percent and 0.1892 mol percent
- LysoPC16:0e in total phospholipid: 0.003391 mol percent and 0.004221 mol percent and 0.003565 mol percent
- LysoPC16:0 in total phospholipid: 0.02383 mol percent and 0.02127 mol percent and 0.02008 mol percent
- LysoPC16:1 in total phospholipid: 0.006406 mol percent and 0.00591 mol percent and 0.006781 mol percent
- LysoPC18:0e in total phospholipid: 0.002449 mol percent and 0.002111 mol percent and 0.001826 mol percent
- LysoPC18:0 in total phospholipid: 0.0065 mol percent and 0.007261 mol percent and 0.008694 mol percent
- LysoPC18:1 in total phospholipid: 0.01564 mol percent and 0.01503 mol percent and 0.01617 mol percent
- LysoPC18:2 in total phospholipid: 0.00179 mol percent and 0.001266 mol percent and 0.001826 mol percent
- LysoPC20:4 in total phospholipid: 0.000565 mol percent and 0.000507 mol percent and 0.000435 mol percent
- LysoPC22:5 in total phospholipid: 0.000565 mol percent and 0.000507 mol percent and 0.000609 mol percent
- LysoPE16:1 in total phospholipid: 0.1387 mol percent and 0.1179 mol percent and 0.1351 mol percent
- LysoPE18:0 in total phospholipid: 0.1248 mol percent and 0.1327 mol percent and 0.06756 mol percent
- LysoPE18:1 in total phospholipid: 0.06936 mol percent and 0.1032 mol percent and 0.1081 mol percent
- PC32:0e in total phospholipid: 1.801 mol percent and 1.766 mol percent and 1.854 mol percent
- PC32:0 in total phospholipid: 2.545 mol percent and 2.525 mol percent and 2.567 mol percent
- PC32:1e in total phospholipid: 2.44 mol percent and 2.388 mol percent and 2.446 mol percent
- PC32:1 in total phospholipid: 9.659 mol percent and 9.461 mol percent and 9.558 mol percent
- PC32:2 in total phospholipid: 1.526 mol percent and 1.443 mol percent and 1.528 mol percent
- PC34:1e in total phospholipid: 4.963 mol percent and 4.847 mol percent and 4.905 mol percent
- PC34:1 in total phospholipid: 19.9344 mol percent and 19.96 mol percent and 20.13 mol percent
- PC34:2e in total phospholipid: 1.578 mol percent and 1.538 mol percent and 1.559 mol percent
- PC34:2 in total phospholipid: 6.328 mol percent and 6.182 mol percent and 6.318 mol percent
- PC34:3e in total phospholipid: 0.2382 mol percent and 0.2269 mol percent and 0.2367 mol percent
- PC34:3 in total phospholipid: 0.6391 mol percent and 0.6013 mol percent and 0.6247 mol percent
- PC36:1e in total phospholipid: 1.472 mol percent and 1.429 mol percent and 1.48 mol percent
- PC36:1 in total phospholipid: 2.714 mol percent and 2.676 mol percent and 2.731 mol percent
- PC36:2e in total phospholipid: 1.667 mol percent and 1.629 mol percent and 1.643 mol percent
- PC36:2 in total phospholipid: 5.976 mol percent and 5.824 mol percent and 5.922 mol percent
- PC36:3e in total phospholipid: 0.8048 mol percent and 0.7841 mol percent and 0.7962 mol percent
- PC36:3 in total phospholipid: 1.196 mol percent and 1.137 mol percent and 1.173 mol percent
- PC36:4e in total phospholipid: 0.4288 mol percent and 0.4113 mol percent and 0.4345 mol percent
- PC36:4 in total phospholipid: 0.338 mol percent and 0.3342 mol percent and 0.3346 mol percent
- PC36:5e in total phospholipid: 0.345 mol percent and 0.3295 mol percent and 0.3467 mol percent
- PC36:5 in total phospholipid: 0.06048 mol percent and 0.05513 mol percent and 0.06303 mol percent
- PC36:6 in total phospholipid: 0.04691 mol percent and 0.05294 mol percent and 0.05486 mol percent
- PC38:1e in total phospholipid: 0.3684 mol percent and 0.3499 mol percent and 0.3643 mol percent
- PC38:3e in total phospholipid: 0.4177 mol percent and 0.3847 mol percent and 0.3977 mol percent
- PC38:3 in total phospholipid: 0.5512 mol percent and 0.5341 mol percent and 0.5477 mol percent
- PC38:4e in total phospholipid: 0.4224 mol percent and 0.3985 mol percent and 0.4045 mol percent
- PC38:4 in total phospholipid: 0.4716 mol percent and 0.4393 mol percent and 0.4567 mol percent
- PC38:5e in total phospholipid: 0.3578 mol percent and 0.3449 mol percent and 0.3552 mol percent
- PC38:5 in total phospholipid: 0.2477 mol percent and 0.2424 mol percent and 0.2561 mol percent
- PC38:6 in total phospholipid: 0.174 mol percent and 0.1785 mol percent and 0.1847 mol percent
- PC38:7 in total phospholipid: 0.1181 mol percent and 0.1149 mol percent and 0.1218 mol percent
- PC40:1e in total phospholipid: 0.1903 mol percent and 0.1874 mol percent and 0.1969 mol percent
- PC40:2e in total phospholipid: 0.2001 mol percent and 0.2004 mol percent and 0.2061 mol percent
- PC40:3e in total phospholipid: 0.1401 mol percent and 0.1387 mol percent and 0.1449 mol percent
- PC40:4e in total phospholipid: 0.1234 mol percent and 0.1193 mol percent and 0.1297 mol percent
- PC40:5e in total phospholipid: 0.1139 mol percent and 0.1153 mol percent and 0.1197 mol percent
- PC40:5 in total phospholipid: 0.09044 mol percent and 0.0835 mol percent and 0.08903 mol percent
- PC40:6 in total phospholipid: 0.1315 mol percent and 0.1248 mol percent and 0.1282 mol percent
- PC40:7 in total phospholipid: 0.1778 mol percent and 0.1711 mol percent and 0.1768 mol percent
- PE32:1 in total phospholipid: 0.3976 mol percent and 0.2948 mol percent and 0.3603 mol percent
- PE32:2 in total phospholipid: 0.111 mol percent and 0.1474 mol percent and 0.08107 mol percent
- PE34:0 in total phospholipid: 0.1665 mol percent and 0.1867 mol percent and 0.1531 mol percent
- PE34:1 in total phospholipid: 1.137 mol percent and 1.327 mol percent and 1.144 mol percent
- PE34:2 in total phospholipid: 0.7398 mol percent and 0.9433 mol percent and 0.7927 mol percent
- PE34p:1 in total phospholipid: 0.971 mol percent and 1.042 mol percent and 0.8107 mol percent
- PE34p:2 in total phospholipid: 0.2589 mol percent and 0.2653 mol percent and 0.2702 mol percent
- PE36:1 in total phospholipid: 1.322 mol percent and 1.425 mol percent and 1.18 mol percent
- PE36:2 in total phospholipid: 1.822 mol percent and 1.936 mol percent and 1.702 mol percent
- PE36:3 in total phospholipid: 0.4809 mol percent and 0.3636 mol percent and 0.4143 mol percent
- PE36:4 in total phospholipid: 0.2219 mol percent and 0.2555 mol percent and 0.1711 mol percent
- PE36p:1 in total phospholipid: 0.4994 mol percent and 0.3931 mol percent and 0.3603 mol percent
- PE36p:2 in total phospholipid: 0.4531 mol percent and 0.5896 mol percent and 0.6485 mol percent
- PE36p:3 in total phospholipid: 0.7305 mol percent and 0.7272 mol percent and 0.9548 mol percent
- PE36p:4 in total phospholipid: 0.9617 mol percent and 0.9433 mol percent and 0.9458 mol percent
- PE38:1 in total phospholipid: 0.3791 mol percent and 0.3046 mol percent and 0.3063 mol percent
- PE38:2 in total phospholipid: 0.2589 mol percent and 0.2555 mol percent and 0.3423 mol percent
- PE38:3 in total phospholipid: 0.6381 mol percent and 0.7959 mol percent and 0.5495 mol percent
- PE38:4 in total phospholipid: 0.8693 mol percent and 0.9237 mol percent and 0.8647 mol percent
- PE38:5 in total phospholipid: 0.3791 mol percent and 0.5405 mol percent and 0.4684 mol percent
- PE38:6 in total phospholipid: 0.1665 mol percent and 0.1376 mol percent and 0.1531 mol percent
- PE38p:0 in total phospholipid: 0.05548 mol percent and 0.08844 mol percent and 0.09008 mol percent
- PE38p:1 in total phospholipid: 0.2034 mol percent and 0.226 mol percent and 0.2432 mol percent
- PE38p:2 in total phospholipid: 0.2312 mol percent and 0.2948 mol percent and 0.3423 mol percent
- PE38p:3 in total phospholipid: 0.7768 mol percent and 0.8352 mol percent and 0.7656 mol percent
- PE38p:4 in total phospholipid: 1.036 mol percent and 0.8549 mol percent and 0.9998 mol percent
- PE38p:5 in total phospholipid: 0.6381 mol percent and 0.7272 mol percent and 0.7026 mol percent
- PE38p:6 in total phospholipid: 0.971 mol percent and 1.238 mol percent and 1.108 mol percent
- PE40:3 in total phospholipid: 0.1202 mol percent and 0.1179 mol percent and 0.1621 mol percent
- PE40:5 in total phospholipid: 0.1572 mol percent and 0.1376 mol percent and 0.2432 mol percent
- PE40:6 in total phospholipid: 0.3052 mol percent and 0.3832 mol percent and 0.2702 mol percent
- PE40p:4 in total phospholipid: 0.2959 mol percent and 0.2162 mol percent and 0.2973 mol percent
- PE40p:5 in total phospholipid: 0.2312 mol percent and 0.285 mol percent and 0.3153 mol percent
- PE40p:6 in total phospholipid: 0.5271 mol percent and 0.7272 mol percent and 0.6485 mol percent
- PE42p:4 in total phospholipid: 0.07398 mol percent and 0.05896 mol percent and 0.08107 mol percent
- PE42p:6 in total phospholipid: 0.1572 mol percent and 0.167 mol percent and 0.1441 mol percent
- PE42p:7 in total phospholipid: 0.1942 mol percent and 0.1277 mol percent and 0.1621 mol percent
- PI 32:1 in total phospholipid: 0.01674 mol percent and 0.0186 mol percent and 0.01785 mol percent
- PI 32:2 in total phospholipid: 0.001586 mol percent and 0.001469 mol percent and 0.001965 mol percent
- PI 34:1 in total phospholipid: 0.1071 mol percent and 0.1227 mol percent and 0.1299 mol percent
- PI 34:2 in total phospholipid: 0.06502 mol percent and 0.06038 mol percent and 0.07305 mol percent
- PI 36:1 in total phospholipid: 0.1544 mol percent and 0.1643 mol percent and 0.1769 mol percent
- PI 36:2 in total phospholipid: 0.3593 mol percent and 0.3719 mol percent and 0.3898 mol percent
- PI 36:3 in total phospholipid: 0.1695 mol percent and 0.1663 mol percent and 0.1785 mol percent
- PI 36:4 in total phospholipid: 0.04176 mol percent and 0.03965 mol percent and 0.0416 mol percent
- PI 38:2 in total phospholipid: 0.3441 mol percent and 0.3474 mol percent and 0.3631 mol percent
- PI 38:3 in total phospholipid: 0.9296 mol percent and 0.9911 mol percent and 1.026 mol percent
- PI 38:4 in total phospholipid: 0.3635 mol percent and 0.3967 mol percent and 0.3998 mol percent
- PI 38:5 in total phospholipid: 0.05392 mol percent and 0.0483 mol percent and 0.04815 mol percent
- PI 38:6 in total phospholipid: 0.0074 mol percent and 0.009628 mol percent and 0.007698 mol percent
- PI 40:3 in total phospholipid: 0.02555 mol percent and 0.02627 mol percent and 0.02801 mol percent
- PI 40:4 in total phospholipid: 0.01515 mol percent and 0.01599 mol percent and 0.01196 mol percent
- PI 40:5 in total phospholipid: 0.004934 mol percent and 0.004895 mol percent and 0.009172 mol percent
- PI 40:6 in total phospholipid: 0.007048 mol percent and 0.006527 mol percent and 0.006715 mol percent
- PS(sum) in total phospholipid: 3.034 mol percent and 2.842 mol percent and 3.239 mol percent
- PS:34:1 in total phospholipid: 0.4968 mol percent and 0.4486 mol percent and 0.5434 mol percent
- PS:34:2 in total phospholipid: 0.04738 mol percent and 0.04492 mol percent and 0.04867 mol percent
- PS:36:1 in total phospholipid: 1.269 mol percent and 1.209 mol percent and 1.375 mol percent
- PS:36:2 in total phospholipid: 0.4595 mol percent and 0.4148 mol percent and 0.4611 mol percent
- PS:36:3 in total phospholipid: 0.02585 mol percent and 0.02217 mol percent and 0.0262 mol percent
- PS:36:4 in total phospholipid: 0.00359 mol percent and 0.006418 mol percent and 0.006239 mol percent
- PS:38:2 in total phospholipid: 0.2312 mol percent and 0.2147 mol percent and 0.2602 mol percent
- PS:38:3 in total phospholipid: 0.1522 mol percent and 0.1447 mol percent and 0.1566 mol percent
- PS:38:4 in total phospholipid: 0.07467 mol percent and 0.08168 mol percent and 0.07674 mol percent
- PS:40:4 in total phospholipid: 0.08328 mol percent and 0.06359 mol percent and 0.073 mol percent
- PS:40:5 in total phospholipid: 0.06605 mol percent and 0.06534 mol percent and 0.05865 mol percent
- PS:40:6 in total phospholipid: 0.09836 mol percent and 0.1038 mol percent and 0.1248 mol percent
- PS:40:7 in total phospholipid: 0.01077 mol percent and 0.01459 mol percent and 0.01435 mol percent
- Total PC + lysoPC in total phospholipid: 71.06 mol percent and 69.79 mol percent and 71.05 mol percent
- Total PE + lysoPE in total phospholipid: 23.19 mol percent and 24.54 mol percent and 22.75 mol percent
- Total PI + lysoPI in total phospholipid: 2.715 mol percent and 2.832 mol percent and 2.956 mol percent
